Molecular target: T1, WT/R232 STING protein (Homo sapiens, UniProt Q86WV6, H232R)
T1 construct: host or cells: HEK293T
Test: Luciferase reporter assay in HEK293T-hSTING-Luciferase cells, WT/R232
Assay type: cell-based
Details: 20 hr stimulation, read-out: R232 Activity (EC50 range)
From the text: • a) Stable STING expressing cells—Stable HEK293T STING-expressing cell lines were generated using plasmids purchased from Invivogen, Calif., USA, that contain STING cDNA cloned into the pUNO-1 vector under hEF1-HTLV promoter and containing the Blasticidin selection cassette. The plasmids hSTING(R232), hSTING(H232), hSTING(HAQ) were directly procured from Invivogen while hSTING (AQ) and hSTING (Q) were derived from hSTING(HAQ) and hSTING (R232) plasmids respectively by using a PCR based site directed mutagenesis method. These vectors were individually transfected into HEK293T cells using Lipofectamine (Invitrogen) and transfected cells were selected under Blasticidin selection. These transfected cells were further subjected to clonal selection using the limiting dilution method to obtain clonally pure populations of HEK cells transfected with each of the above mentioned human STING variants. Only those clones were selected in which ligand independent activation of STING was minimal. • b) Stable Luciferase reporter gene expressing cells—Stable HEK293T Luciferase reporter gene expressing cell lines were generated using pCDNA4 plasmids under an IRF-inducible promoter. This promoter is comprised of five tandem interferon-stimulated response elements (ISRE) fused to an ISG54 minimal promoter. This vector was transfected into HEK293T cells using Lipofectamine (Invitrogen) and transfected cells were selected under Zeocin selection. These transfected cells were further subjected to clonal selection using the limiting dilution method to obtain clonally pure populations of HEK cells transfected the Luciferase reporter construct. Only those clones were selected in which ligand independent induction of luciferase was minimal.
5×10^5 clonally selected HEK293T-hSTING-Luciferase cells were seeded in 384-well plates in growth medium and stimulated with novel compounds. After 20 hr of stimulation supernatant were removed and secretary reporter gene activity were measured using the Quanti-Luc detection system (Invivogen) on a Spectramax i3X luminometer.
All compounds were first tested in a primary screen using WT/R232 STING protein to obtain a ‘fold-induction’ over baseline levels of protein activity.

T1 sequence (Q86WV6 whole entry H232R): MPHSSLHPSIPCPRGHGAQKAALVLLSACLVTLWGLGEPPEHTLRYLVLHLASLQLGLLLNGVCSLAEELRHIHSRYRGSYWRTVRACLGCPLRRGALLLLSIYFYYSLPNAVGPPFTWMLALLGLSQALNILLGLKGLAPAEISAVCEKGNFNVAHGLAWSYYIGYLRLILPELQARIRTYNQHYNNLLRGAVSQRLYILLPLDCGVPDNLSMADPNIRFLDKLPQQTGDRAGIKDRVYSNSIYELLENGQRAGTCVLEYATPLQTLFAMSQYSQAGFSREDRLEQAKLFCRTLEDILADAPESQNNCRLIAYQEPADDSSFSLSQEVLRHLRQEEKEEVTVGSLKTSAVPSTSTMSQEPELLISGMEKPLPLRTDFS

O=C(NC(c1ccccc1)c1ccccc1)c1ccc2c(c1)N(Cc1ccccc1F)C(=O)CS2 [Example 42, N-benzhydryl-4-(2-fluorobenzyl)-3-oxo-3,4-dihydro-2H-benzo[b][1,4] thiazine-6-carboxamide]
EC50: > 10 µM

O=C(NCc1ccco1)c1ccc2c(c1)N(Cc1c(F)cccc1F)C(=O)CS2 [Example 101, 4-(2,6-difluorobenzyl)-N-(furan-2-ylmethyl)-3-oxo-3,4-dihydro-2H-benzo[b-1,4]thiazine-6-carboxamide]
EC50: 1 to 10 µM

O=C(NCc1cccc(Cl)c1Cl)c1ccc2c(c1)N(Cc1ccccc1)C(=O)CS2 [Example 55, 4-benzyl-N-(2,3-dichlorobenzyl)-3-oxo-3,4-dihydro-2H-benzo[b-1,4]thiazine-6-carboxamide]
EC50: > 10 µM

O=C(NCc1ccco1)c1ccc2c(c1)N(C(=O)c1ccccc1)CCS2 [Example 255, 4-benzoyl-N-(furan-2-ylmethyl)-3,4-dihydro-2H-benzo[b][1,4]thiazine-6-carboxamide]
EC50: > 10 µM

O=C(NCc1ccco1)c1ccc2c(c1)N(Cc1ccccc1C(F)(F)F)C(=O)CS2 [Example 30, N-(furan-2-ylmethyl)-3-oxo-4-(2-(trifluoro-methyl)benzyl)-3,4-dihydro-2H-benzo[b-1,4]thiazine-6-carboxamide]
EC50: > 10 µM

Cc1cccc(CN2C(=O)CSc3ccc(C(=O)NCc4ccco4)cc32)c1C [Example 12, 4-(2,3-dimethyl-benzyl)-N-(furan-2-ylmethyl)-3-oxo-3,4-dihydro-2H-benzo[b-1,4]thiazine-6-caroxamide]
EC50: 1 to 10 µM

O=C(NCC1CCCO1)c1ccc2c(c1)N(Cc1c(F)cccc1Cl)C(=O)CS2 (centres unmarked) [Example 130, 4-(2-chloro-6-fluorobenzyl)-3-oxo-N-((tetrahydrofuran-2-yl)methyl)-3,4-dihydro-2H-benzo[b-1,4]thiazine-6-carboxamide]
EC50: > 10 µM

CC1Sc2ccc(C(=O)NCc3cnccn3)cc2N(Cc2cc(F)cc(F)c2)C1=O (centres unmarked) [Example 168, 4-(3,5-difluorobenzyl)-2-methyl-3-oxo-N-(pyrazin-2-ylmethyl)-3,4-dihydro-2H-benzo [b][1,4]thiazine-6-carboxamide]
EC50: > 10 µM

Cc1ccc(CNC(=O)c2ccc3c(c2)N(Cc2ccccc2)C(=O)CS3)o1 [Example 62, 4-benzyl-N-((5-methylfuran-2-yl)methyl)-3-oxo-3,4-dihydro-2H-benzo[b-1,4]thiazine-6-carboxamide]
EC50: 1 to 10 µM

O=C(NCc1c(F)cc(F)cc1F)c1ccc2c(c1)N(C(C(=O)O)c1ccccc1)C(=O)CS2 (centres unmarked) [Example 113, 2-(3-oxo-6-((2,4,6-trifluorobenzyl)carbamoyl)-2H-benzo[b][1,4]thiazin-4(3H)-yl)-2-phenylacetic acid]
EC50: > 10 µM

Cc1ccc(CN2CCC(CNC(=O)c3ccc4c(c3)N(Cc3c(F)cccc3Cl)C(=O)CS4)CC2)cc1 [Example 128, 4-(2-chloro-6-fluorobenzyl)-N-((1-(4-methylbenzyl)piperidin-4-yl)methyl)-3-oxo-3,4-dihydro-2H-benzo[b][1,4]thiazine-6-carboxamide]
EC50: > 10 µM

O=C(O)CC1Sc2ccc(C(=O)NCc3ccco3)cc2N(Cc2ccccc2F)C1=O (centres unmarked) [Example 175, 2-(4-(2-fluorobenzyl)-6-((furan-2-ylmethyl)carbamoyl)-3-oxo-3,4-dihydro-2H-benzo[b][1,4]thiazin-2-yl)acetic acid]
EC50: > 10 µM

Cc1ccc(CNC(=O)c2ccc3c(n2)N(C(C)c2cc(F)cc(F)c2)C(=O)C(C)S3)o1 (centres unmarked) [Example 204, 4-(1-(3,5-difluorophenyl)ethyl)-2-methyl-N-((5-methylfuran-2-yl)methyl)-3-oxo-3,4-dihydro-2H-pyrido[3,2-b] [1,4] thiazine-6-carboxamide]
EC50: 1 to 10 µM

O=C(NCc1c(F)cc(F)cc1F)c1cnc2c(c1)N(Cc1cc(F)cc(F)c1)C(=O)CO2 [Example 236, 1-(3,5-difluorobenzyl)-2-oxo-N-(2,4,6-trifluorobenzyl)-2,3-dihydro-1H-pyrido[2,3-b-1,4]oxazine-7-carboxamide]
EC50: > 10 µM

— patent US20200138827A1, “SMALL MOLECULE MODULATORS OF HUMAN STING” (Curadev Pharma Limited, priority 2017, published 2020)
